Experiments:
[1] = system: PANC-1 pancreatic cancer cell line; test: Cell proliferation assay (DAPI); format: cell-based; conditions: Homo sapiens
In short: (§1)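 NCI-H1975 cells in RPMI; PANC-1 and MIA PaCa-2 in DMEM-high glucose; BxPC3 in RPMI; all with 10% FBS. Compounds at 10 µM final (or serial dilutions for IC50), 0.3% DMSO, 2–4 days at 37 °C. Fixed, DAPI-stained, fluorescence read at 358/461 nm to give proliferation inhibition.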

[2] = system: MIA PaCa-2 pancreatic cancer cell line; test: Cell proliferation assay (DAPI); format: cell-based; conditions: Homo sapiens, MIA PaCa-2; for inhibition at 10 µM: 2-4 days, read-out: % Inhibition of cell proliferation, MIA PaCa-2 % inh
In short: as §1

[3] = system: BxPC3 pancreatic cancer cell line; test: Cell proliferation assay (DAPI); format: cell-based; conditions: Homo sapiens, BXPC-3
In short: as §1

[4] = system: NCI H1299 non-small-cell lung cancer cell line; test: Cell proliferation assay (DAPI); format: cell-based; conditions: Homo sapiens
[5] = system: NCI H1975 non-small-cell lung cancer cell line; test: Cell proliferation assay (DAPI); format: cell-based; conditions: Homo sapiens
In short: as §1

[6] = system: MAPK phosphorylation; test: Western MAPK cell-based phosphorylation assay, BxPC3; conditions: Homo sapiens; for inhibition at 10 µM: BXPC-3, 10 μM, 6 hours, EGF stimulation
Protocol: (§2) Cell lines: Human NSCLC cells NCI-H1975 and NCI-H1299, and tumor-derived pancreatic cancer cell lines Panc-1, MIA-PaCa-2, and BxPC3, were all purchased from American Type Culture Collection and grown in complete RPMI medium (BxPC3, NCI-H1975 and NCI-H1299) or DMEM-High Glucose (Panc1 and MIA-PaCa-2), supplemented with penicillin (100 U/mL), streptomycin (100 μg/mL), and 10% heat-inactivated FBS at 37° C. in a humidified incubator with 5% CO2.
(§3) Method: Cells were plated at 350000 cells/well density in a 12-well plate, allowed 3 hours to adhere to the plate, then starved in the appropriate medium in the presence of 0.5% FBS overnight. The small molecules to be tested were added to the cells in the final concentration of 10 μM in the presence of 0.3% DMSO for 6 hours incubation at 37° C. For IC50 value determination, serial dilutions of compounds were added to cells under the same conditions. Next, cells were stimulated with 1.5 ng/ml EGF for 15 minutes then cells were lysed with lysis buffer containing 1% Triton X-100, EDTA, and Halt™ Protease & Phosphatase Inhibitor Cocktail (Thermo Scientific). Protein concentration was assessed by BCA protein assay (Thermo Scientific). Phosphorylation level of MAPK was determined by western blot.
(§4) Western blot protocol: Equal amounts of protein (15-50 μg) were separated by SDS-PAGE and transferred to nitrocellulose membranes (Invitrogen by Thermo Fisher Scientific). The membrane was stained with Ponceau S Stain (Boston BioProducts) to verify uniform protein loading. Membranes were blocked with 10% milk and phosphorylation levels of MAPK were assessed by incubating overnight at 4° C. with anti-phospho-p44/42 (Thr202/Tyr204) antibody (Cell Signaling) followed by HRP-conjugated secondary antibody (Jackson Immunoresearch, West Grove, PA). Bands were incubated in Amersham ECL Prime Western Blotting Detection Reagent (GE Healthcare) and visualized using the ChemiDoc MP imaging system (Bio-Rad).

[7] = system: AKT phosphorylation; test: Western AKT cell-based phosphorylation assay, PANC-1; conditions: Homo sapiens, 6 hours, EGF stimulation, PANC-1
In short: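 PANC-1 cells, serum-starved overnight in 0.5% FBS, were treated with compound at 10 μM (0.3% DMSO) for 6 h at 37 °C and then stimulated with 1.5 ng/ml EGF for 15 min. Lysates (15–50 μg) were immunoblotted for phospho-Akt Ser473, with ECL detection.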

[8] = system: MAPK phosphorylation; test: Western MAPK cell-based phosphorylation assay, NCI H1299; conditions: Homo sapiens; for inhibition at 10 µM: 6 hours, EGF stimulation
Protocol: as §2, §3, §4

[9] = system: MAPK phosphorylation; test: Western MAPK cell-based phosphorylation assay, MIA PaCa-2; conditions: Homo sapiens; for inhibition at 10 µM: 6 hours, EGF stimulation
Protocol: as §2, §3, §4

[10] = system: MAPK phosphorylation; test: MAPK cell-based phosphorylation assay (ELISA or Western), PANC-1; conditions: Homo sapiens, PANC-1; for inhibition at 10 µM: 6 hours, EGF stimulation
In short: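 Serum-starved (0.5% FBS overnight) cells given compound at 10 μM or serial dilutions (0.3% DMSO) for 6 h at 37 °C, then 1.5 ng/mL EGF for 15 min. Phospho-MAPK read by fixed-cell ELISA (fluorescence, 595 nm) or by Western blot of lysates with anti-phospho-p44/42 (Thr202/Tyr204).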

[11] = system: MAPK phosphorylation; test: Western MAPK cell-based phosphorylation assay, NCI H1975; conditions: Homo sapiens; for inhibition at 10 µM: 6 hours, EGF stimulation
Protocol: as §2, §3, §4

IC50 [1] [nM] | IC50 [2] [nM] | IC50 [3] [nM] | SMILES | inhibition at 10 µM [2] [%] | IC50 [4] [nM] | IC50 [5] [nM] | inhibition at 10 µM [6] [%] | inhibition at 10 µM [7] [%] | inhibition at 10 µM [8] [%] | inhibition at 10 µM [9] [%] | inhibition at 10 µM [10] [%] | inhibition at 10 µM [11] [%] | further results
750 to 1000 | > 1000 | 750 to 1000 | COCC(C)Nc1nc(-c2nccn2C)nc2sc(-c3ccn(C)n3)c(-c3ccccc3)c12 (stereo not shown) [drawing 544] | 76 to 100 | – | – | – | – | – | – | – | – | –
500 to 749 | 750 to 1000 | 750 to 1000 | COCCNc1nc(-c2nccn2C)nc2sc(-c3cccc(OC)c3Cl)c(-c3ccc(OC)cc3)c12 [drawing 562] | 76 to 100 | 750 to 1000 | 750 to 1000 | – | – | – | – | – | – | –
– | – | – | CO[C@@H]1CCC(Nc2nc(-c3nccn3C)nc3sc(-c4ccn(C)n4)c(-c4ccccc4)c23)C1 (stereo partly shown) [drawing 407] | – | – | – | 0 | 0 | 26 to 50 | 0 | 76 to 100 | 26 to 50 | –
– | – | – | COCCNc1nc(-c2nccn2C)nc2sc(-c3cccc(OC)c3Cl)c(-c3ccccc3)c12 [drawing 425] | – | – | – | 76 to 100 | 76 to 100 | 76 to 100 | 76 to 100 | 76 to 100 | 76 to 100 | –
500 to 749 | 750 to 1000 | 750 to 1000 | COCC1CCN(c2nc(-c3nccn3C)nc3sc(-c4ccn(C)n4)c(-c4ccccc4)c23)C1 (stereo not shown) [drawing 550] | 76 to 100 | > 1000 | > 1000 | – | – | – | – | – | – | –
750 to 1000 | 750 to 1000 | 750 to 1000 | CO[C@@H]1CCC(Nc2nc(-c3nccn3C)nc3sc(-c4ccn(C)n4)c(-c4ccccc4)c23)C1 (stereo partly shown) [drawing 549] | 76 to 100 | 750 to 1000 | 750 to 1000 | – | – | – | – | – | – | –
– | – | – | COCCNc1nc(-c2nccn2C)nc2sc(-c3ccccc3Cl)c(-c3ccc(OC)cc3)c12 [drawing 418] | – | – | – | 0 | 0 | 0 | 76 to 100 | 76 to 100 | 0 | –
– | – | – | COCC(C)Nc1nc(-c2nccn2C)nc2sc(-c3ccccc3Cl)c(-c3cscn3)c12 (stereo not shown) [drawing 556] | 76 to 100 | > 1000 | > 1000 | – | – | – | – | – | – | –
– | – | – | CO[C@H]1CCC(Nc2nc(-c3nccn3C)nc3sc(-c4ccn(C)n4)c(-c4ccccc4)c23)C1 (stereo partly shown) [drawing 406] | – | – | – | 76 to 100 | 76 to 100 | 76 to 100 | 76 to 100 | 76 to 100 | 76 to 100 | –
– | – | – | COCCNc1nc(-c2cn(C)cn2)nc2sc(-c3ccccc3Cl)c(-c3ccc(OC)cc3)c12 [drawing 422] | – | – | – | 26 to 50 | 0 | 0 | 76 to 100 | 76 to 100 | 76 to 100 | –
500 to 749 | 500 to 749 | 500 to 749 | CO[C@H]1CCC(Nc2nc(-c3nccn3C)nc3sc(-c4ccn(C)n4)c(-c4ccccc4)c23)C1 (stereo partly shown) [drawing 548] | 76 to 100 | 750 to 1000 | 500 to 749 | – | – | – | – | – | – | –
– | – | – | COCCNc1nc(-c2nccn2C)nc2sc(-c3cccc(OC)c3Cl)c(-c3ccccc3)c12 [drawing 472] | – | – | – | – | – | – | – | – | – | IC50 ([6]; BXPC-3): > 1000 nM; IC50 [8]: > 1000 nM; IC50 [9]: 750 to 1000 nM; IC50 [10]: 750 to 1000 nM; IC50 [11]: > 1000 nM
– | – | – | COCCNc1nc(-c2nccn2C)nc2sc(-c3cccc(OC)c3Cl)c(-c3ccc(OC)cc3)c12 [drawing 420] | – | – | – | 1 to 25 | 26 to 50 | 0 | 76 to 100 | 76 to 100 | 76 to 100 | –
750 to 1000 | – | – | COCC(C)Nc1nc(-c2nccn2C)nc2sc(-c3cccc(OC)c3)c(-c3cscn3)c12 (stereo not shown) [drawing 558] | 76 to 100 | > 1000 | > 1000 | – | – | – | – | – | – | –
> 1000 | > 1000 | > 1000 | Cn1ccc(-c2sc3nc(-c4nccn4C)nc(NCC4CCOC4)c3c2-c2ccccc2)n1 (stereo not shown) [drawing 547] | 76 to 100 | – | – | – | – | – | – | – | – | –
750 to 1000 | > 1000 | > 1000 | COC1CCN(c2nc(-c3nccn3C)nc3sc(-c4ccn(C)n4)c(-c4ccccc4)c23)C1 (stereo not shown) [drawing 545] | 76 to 100 | – | – | – | – | – | – | – | – | –
– | – | – | COCC1CCN(c2nc(-c3nccn3C)nc3sc(-c4ccn(C)n4)c(-c4ccccc4)c23)C1 (stereo not shown) [drawing 408] | – | – | – | – | 0 | 26 to 50 | – | 76 to 100 | – | –
– | – | – | COCCNc1nc(-c2nccn2C)nc2sc(-c3cccc(OC)c3)c(-c3ccc(OC)cc3)c12 [drawing 419] | – | – | – | 0 | 0 | 0 | 76 to 100 | 76 to 100 | 76 to 100 | –
– | – | – | CO[C@H]1CCC(Nc2nc(-c3nccn3C)nc3sc(-c4ccn(C)n4)c(-c4ccccc4)c23)C1 (stereo partly shown) [drawing 474] | – | – | – | – | – | – | – | – | – | IC50 [9]: > 1000 nM; IC50 [10]: 750 to 1000 nM; IC50 [11]: > 1000 nM
750 to 1000 | > 1000 | 750 to 1000 | COCCCNc1nc(-c2nccn2C)nc2sc(-c3ccn(C)n3)c(-c3ccccc3)c12 [drawing 542] | 76 to 100 | – | – | – | – | – | – | – | – | –
